Data taken from ChEMBL document CHEMBL2016514, “Homobivalent ligands of the atypical antipsychotic clozapine: design, synthesis, and pharmacological evaluation” (J Med Chem, 2012).

How the values were obtained:
D(2) dopamine receptor [1] = molecular target: T1, D(2) dopamine receptor (Homo sapiens, UniProt P14416); assay: Inhibition of human dopamine D2L receptor expressed in intact CHO FlpIn cells assessed as inhibition of receptor-mediated mediated ERK1/2 phosphorylation by Alpha-Screen plate-based assay; format: cell-based
T1 sequence (P14416 whole entry): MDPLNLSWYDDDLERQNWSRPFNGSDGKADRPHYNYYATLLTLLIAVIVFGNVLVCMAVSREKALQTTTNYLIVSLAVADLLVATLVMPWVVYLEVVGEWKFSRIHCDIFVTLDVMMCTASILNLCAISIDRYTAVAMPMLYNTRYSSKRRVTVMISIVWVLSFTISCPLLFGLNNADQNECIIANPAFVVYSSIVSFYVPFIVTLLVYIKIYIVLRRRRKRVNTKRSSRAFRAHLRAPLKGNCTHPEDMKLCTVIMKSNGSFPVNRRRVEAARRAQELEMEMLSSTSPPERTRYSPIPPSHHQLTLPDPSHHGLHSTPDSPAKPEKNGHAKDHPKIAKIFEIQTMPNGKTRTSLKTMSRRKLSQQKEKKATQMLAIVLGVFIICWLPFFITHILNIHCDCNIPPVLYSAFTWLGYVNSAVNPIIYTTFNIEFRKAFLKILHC

D(2) dopamine receptor [2] = molecular target: T1, D(2) dopamine receptor; assay: Displacement of [3H]-spiperone from human dopamine D2L receptor expressed in CHO FlpIn cell membrane measured after 3 hrs by topcount scintillation counting

In the case of CCCCCCCCCC(=O)N1c2ccc(Cl)cc2N=C(N2CCN(C)CC2)c2ccccc21, the IC50 (D(2) dopamine receptor [1]; read-out: IC50) is reported as 0.776 µM.
In the case of CN1CCN(C2=Nc3cc(Cl)ccc3N(C(=O)CCCCCCC(=O)N3c4ccc(Cl)cc4N=C(N4CCN(C)CC4)c4ccccc43)c3ccccc32)CC1, the IC50 (D(2) dopamine receptor [1]; read-out: IC50) is reported as 2.66 µM and the IC50 (D(2) dopamine receptor [1]; read-out: pIC50 (converted)) is reported as 1.78 µM.
With CN1CCN(C2=Nc3cc(Cl)ccc3N(C(=O)CCCCCCCCC(=O)N3c4ccc(Cl)cc4N=C(N4CCN(C)CC4)c4ccccc43)c3ccccc32)CC1 the pIC50 (D(2) dopamine receptor [1]; cho) was < 5 and the IC50 (D(2) dopamine receptor [1]; read-out: IC50) was > 10 µM.
With CN1CCN(C2=Nc3cc(Cl)ccc3N(C(=O)CCCCCCCCCCC(=O)N3c4ccc(Cl)cc4N=C(N4CCN(C)CC4)c4ccccc43)c3ccccc32)CC1 the pIC50 (D(2) dopamine receptor [1]; cho) was < 5 and the IC50 (D(2) dopamine receptor [1]; read-out: IC50) was > 10 µM.
In the case of CN1CCN(C2=Nc3cc(Cl)ccc3N(C(=O)CCCCCCCCCCCCC(=O)N3c4ccc(Cl)cc4N=C(N4CCN(C)CC4)c4ccccc43)c3ccccc32)CC1, the pIC50 (D(2) dopamine receptor [1]; cho) is reported as < 5 and the IC50 (D(2) dopamine receptor [1]; read-out: IC50) is reported as > 10 µM.
CN1CCN(C2=Nc3cc(Cl)ccc3N(C(=O)CCCCCCCCCCCCCCCCC(=O)N3c4ccc(Cl)cc4N=C(N4CCN(C)CC4)c4ccccc43)c3ccccc32)CC1 was tested, and the pIC50 (D(2) dopamine receptor [1]; cho) was < 5 and the IC50 (D(2) dopamine receptor [1]; read-out: IC50) was > 10 µM.
In the case of CN1CCN(C2=Nc3cc(Cl)ccc3N(C(=O)CCCCCCCCCCCCCCCCCCC(=O)N3c4ccc(Cl)cc4N=C(N4CCN(C)CC4)c4ccccc43)c3ccccc32)CC1, the pIC50 (D(2) dopamine receptor [1]; cho) is reported as < 5 and the IC50 (D(2) dopamine receptor [1]; read-out: IC50) is reported as > 10 µM.
With CCCCCCCCCC(=O)NN1c2ccc(Cl)cc2N=C(N2CCN(C)CC2)c2ccccc21 the IC50 (D(2) dopamine receptor [1]; read-out: IC50) was 8.94 µM.
Molecule CN1CCN(C2=Nc3cc(Cl)ccc3N(NC(=O)CCCCC(=O)NN3c4ccc(Cl)cc4N=C(N4CCN(C)CC4)c4ccccc43)c3ccccc32)CC1 has an IC50 (D(2) dopamine receptor [1]; read-out: IC50) of 2.08 µM and an IC50 (D(2) dopamine receptor [1]; read-out: pIC50 (converted)) of 2.04 µM.
In the case of CN1CCN(C2=Nc3cc(Cl)ccc3N(NC(=O)CCCCCCC(=O)NN3c4ccc(Cl)cc4N=C(N4CCN(C)CC4)c4ccccc43)c3ccccc32)CC1, the IC50 (D(2) dopamine receptor [1]; read-out: IC50) is reported as 2.44 µM.
CN1CCN(C2=Nc3cc(Cl)ccc3N(NC(=O)CCCCCCCCC(=O)NN3c4ccc(Cl)cc4N=C(N4CCN(C)CC4)c4ccccc43)c3ccccc32)CC1 was tested, and the pIC50 (D(2) dopamine receptor [1]; cho) was < 5 and the IC50 (D(2) dopamine receptor [1]; read-out: IC50) was > 10 µM.
With CN1CCN(C2=Nc3cc(Cl)ccc3N(NC(=O)CCCCCCCCCCC(=O)NN3c4ccc(Cl)cc4N=C(N4CCN(C)CC4)c4ccccc43)c3ccccc32)CC1 the pIC50 (D(2) dopamine receptor [1]; cho) was < 5 and the IC50 (D(2) dopamine receptor [1]; read-out: IC50) was > 10 µM.
CN1CCN(C2=Nc3cc(Cl)ccc3N(NC(=O)CCCCCCCCCCCCC(=O)NN3c4ccc(Cl)cc4N=C(N4CCN(C)CC4)c4ccccc43)c3ccccc32)CC1 was tested, and the pIC50 (D(2) dopamine receptor [1]; cho) was < 5 and the IC50 (D(2) dopamine receptor [1]; read-out: IC50) was > 10 µM.
CN1CCN(C2=Nc3cc(Cl)ccc3N(NC(=O)CCCCCCCCCCCCCCCCC(=O)NN3c4ccc(Cl)cc4N=C(N4CCN(C)CC4)c4ccccc43)c3ccccc32)CC1 was tested, and the pIC50 (D(2) dopamine receptor [1]; cho) was < 5 and the IC50 (D(2) dopamine receptor [1]; read-out: IC50) was > 10 µM.
In the case of CN1CCN(C2=Nc3cc(Cl)ccc3N(NC(=O)CCCCCCCCCCCCCCCCCCC(=O)NN3c4ccc(Cl)cc4N=C(N4CCN(C)CC4)c4ccccc43)c3ccccc32)CC1, the pIC50 (D(2) dopamine receptor [1]; cho) is reported as < 5 and the IC50 (D(2) dopamine receptor [1]; read-out: IC50) is reported as > 10 µM.
CN1CCN(C2=Nc3cc(Cl)ccc3N(NC(=O)CCC(=O)N3CCN(C(=O)CCC(=O)NN4c5ccc(Cl)cc5N=C(N5CCN(C)CC5)c5ccccc54)CC3)c3ccccc32)CC1 was tested, and the IC50 (D(2) dopamine receptor [1]; read-out: IC50) was 1.62 µM.
CN1CCN(C2=Nc3cc(Cl)ccc3N(NC(=O)CCCC(=O)N3CCN(C(=O)CCCC(=O)NN4c5ccc(Cl)cc5N=C(N5CCN(C)CC5)c5ccccc54)CC3)c3ccccc32)CC1 gave an IC50 (D(2) dopamine receptor [1]; read-out: IC50) of 2.63 µM.
Molecule CN1CCN(C2=Nc3cc(Cl)ccc3N(NC(=O)CCC(=O)OCCOC(=O)CCC(=O)NN3c4ccc(Cl)cc4N=C(N4CCN(C)CC4)c4ccccc43)c3ccccc32)CC1 has an IC50 (D(2) dopamine receptor [1]; read-out: IC50) of 2.41 µM.
CCCCCCCCCC(=O)NCCCN1CCN(C2=Nc3cc(Cl)ccc3Nc3ccccc32)CC1 gave an IC50 (D(2) dopamine receptor [1]; read-out: IC50) of 1.46 µM, a Ki (D(2) dopamine receptor [2]; read-out: Ki) of 0.0091 µM and a Ki (D(2) dopamine receptor [2]; read-out: pKi (converted)) of 0.00891 µM.
With O=C(CCCCC(=O)NCCCN1CCN(C2=Nc3cc(Cl)ccc3Nc3ccccc32)CC1)NCCCN1CCN(C2=Nc3cc(Cl)ccc3Nc3ccccc32)CC1 the IC50 (D(2) dopamine receptor [1]; read-out: IC50) was 0.087 µM, the Ki (D(2) dopamine receptor [2]; read-out: Ki) was 0.0036 µM and the Ki (D(2) dopamine receptor [2]; read-out: pKi (converted)) was 0.00316 µM.
Molecule O=C(CCCCCCC(=O)NCCCN1CCN(C2=Nc3cc(Cl)ccc3Nc3ccccc32)CC1)NCCCN1CCN(C2=Nc3cc(Cl)ccc3Nc3ccccc32)CC1 has an IC50 (D(2) dopamine receptor [1]; read-out: IC50) of 0.023 µM, a Ki (D(2) dopamine receptor [2]; read-out: Ki) of 0.00141 µM and a Ki (D(2) dopamine receptor [2]; read-out: pKi (converted)) of 0.00135 µM.
For O=C(CCCCCCCCC(=O)NCCCN1CCN(C2=Nc3cc(Cl)ccc3Nc3ccccc32)CC1)NCCCN1CCN(C2=Nc3cc(Cl)ccc3Nc3ccccc32)CC1, the IC50 (D(2) dopamine receptor [1]; read-out: IC50) was 0.044 µM, the Ki (D(2) dopamine receptor [2]; read-out: Ki) was 0.00135 µM and the Ki (D(2) dopamine receptor [2]; read-out: pKi (converted)) was 0.00123 µM.
For O=C(CCCCCCCCCCC(=O)NCCCN1CCN(C2=Nc3cc(Cl)ccc3Nc3ccccc32)CC1)NCCCN1CCN(C2=Nc3cc(Cl)ccc3Nc3ccccc32)CC1, the IC50 (D(2) dopamine receptor [1]; read-out: IC50) was 1.12 µM and the IC50 (D(2) dopamine receptor [1]; read-out: pIC50 (converted)) was 1.1 µM.
O=C(CCCCCCCCCCCCC(=O)NCCCN1CCN(C2=Nc3cc(Cl)ccc3Nc3ccccc32)CC1)NCCCN1CCN(C2=Nc3cc(Cl)ccc3Nc3ccccc32)CC1 showed an IC50 (D(2) dopamine receptor [1]; read-out: IC50) of 11 µM.
In the case of O=C(CCCCCCCCCCCCCCCCC(=O)NCCCN1CCN(C2=Nc3cc(Cl)ccc3Nc3ccccc32)CC1)NCCCN1CCN(C2=Nc3cc(Cl)ccc3Nc3ccccc32)CC1, the IC50 (D(2) dopamine receptor [1]; read-out: IC50) is reported as 7.8 µM, the Ki (D(2) dopamine receptor [2]; read-out: Ki) is reported as 0.269 µM and the Ki (D(2) dopamine receptor [2]; read-out: pKi (converted)) is reported as 0.245 µM.
In the case of O=C(CCCCCCCCCCCCCCCCCCC(=O)NCCCN1CCN(C2=Nc3cc(Cl)ccc3Nc3ccccc32)CC1)NCCCN1CCN(C2=Nc3cc(Cl)ccc3Nc3ccccc32)CC1, the IC50 (D(2) dopamine receptor [1]; cho, read-out: IC50) is reported as > 10 µM and the IC50 (D(2) dopamine receptor [1]; read-out: pIC50 (converted)) is reported as > 10 µM.
